# Columns and labels:
# [1] = test system: Comparative enzyme EP 1152054 SEQ ID NO: 1; test: Relative activity of dehydrogenase for various substrates, without cofactor regeneration (Example 1); assay type: biochemical; settings: 37° C., approx. 20 hours
# Method: (§1) Relative activity of the dehydrogenases of the invention for various substrates (optical purity in % ee is indicated in brackets)
# (§2) The reaction was carried out without cofactor regeneration.
# (§3) 180 μl of 50 mM Kpi buffer, including 1 mM MgCl2
# (§4) 200 μl of NADPH, 10 mM stock solution
# (§5) 100 μl of substrate, 1 M stock solution 500 μl of hexane
# (§6) The reaction mixture was incubated at 37° C. and 1000 rpm for approx. 20 hours. It was then centrifuged at 20° C., the clear supernatant was removed and analyzed by chiral gas chromatography.
# [2] = test system: Comparative enzyme EP 1152054 SEQ ID NO: 1; test: Relative activity of dehydrogenase for various substrates, with cofactor regeneration in the 2-phase system (Example 3); assay type: biochemical
# [3] = test system: ADH-3 enzyme SEQ ID NO: 2; test: as above; assay type: biochemical, Candida
# [4] = test system: ADH-4 enzyme SEQ ID NO: 4; test: as above; assay type: biochemical, Candida
# [5] = test system: ADH-3 enzyme SEQ ID NO: 2; test: Relative activity of dehydrogenase for various substrates, without cofactor regeneration (Example 1); assay type: biochemical, Candida; settings: 37° C., approx. 20 hours, chiral gas chromatography
# Method: as §1, §2, §3, §4, §5, §6
# [6] = test system: ADH-4 enzyme SEQ ID NO: 4; test: as above; assay type: biochemical, Candida; settings: 37° C., approx. 20 hours, chiral gas chromatography
# Method: as §1, §2, §3, §4, §5, §6
# [7] = test system: ADH-3 enzyme SEQ ID NO: 2; test: Relative activity of dehydrogenase for various substrates, with cofactor regeneration, monophasic liquid system (Example 2); assay type: biochemical, Candida; settings: cofactor regeneration with glucose and glucose dehydrogenase
# Method: (§7) Relative activity of the dehydrogenases of the invention for various substrates (optical purity in % ee is indicated in brackets) with cofactor regeneration.
# (§8) The reaction was carried out in a manner similar to example 1. Cofactor regeneration was carried out by way of addition of glucose and glucose dehydrogenase in a monophasic liquid system.
# [8] = test system: Comparative enzyme EP 1152054 SEQ ID NO: 1; test: as above; assay type: biochemical; settings: cofactor regeneration with glucose and glucose dehydrogenase
# Method: as §7, §8
# [9] = test system: ADH-4 enzyme SEQ ID NO: 4; test: as above; assay type: biochemical, Candida; settings: cofactor regeneration with glucose and glucose dehydrogenase
# Method: as §7, §8
# [10] = cofactor regeneration, two-phase liquid system (MTBE: aqueous)
# [11] = ADH-3 enzyme, cofactor regeneration, two-phase liquid system (MTBE: aqueous)
# [12] = ADH-4 enzyme, cofactor regeneration, two-phase liquid system (MTBE: aqueous)
Compound,Relative activity [1],"Relative activity [2, 10]","Relative activity [3, 11]","Relative activity [4, 12]",Relative activity [5],Relative activity [6],Relative activity [7],Relative activity [8],Relative activity ([2]; […]),Relative activity [3],Relative activity [4],Relative activity [9]
4-chloro-methoxyacetophenone [CMAP],29.44,46.8,100,77.1,34.46,24.89,–,–,–,–,–,–
CC(=O)c1ccccc1 [Acetophenone],0.84,0.2,71.2,0.4,16.08,3.14,8.9,0.7,–,–,–,–
"O=C(CCl)c1ccc(F)cc1 [FCA, 4′-fluoro-2-chloro-acetophenone]",–,–,–,–,–,–,99.5,50.4,12.6,99.5,15.3,53.6
"O=C(CCl)c1cccc(Cl)c1 [m-DICAP, 2,3′-dichloro-acetophenone]",2.3,–,–,–,100,56.38,100,47.1,14 (>99% R),100,24.6 (6% S),55.8
"O=C(CCl)c1ccc(Cl)cc1 [p-DICAP, 2,4′-dichloro-acetophenone]",–,–,–,–,–,–,18.9,62.5,24.2 (>99% R),30.4 (>99% R),27.6 (42% S),62.1
